Laboratory results reported in ChEMBL document CHEMBL3351501, “Inhibition of pseudolysin and thermolysin by hydroxamate-based MMP inhibitors” (Eur J Med Chem, 2015).

Tests used:
Elastase [1] = molecular target: T1, Elastase (Pseudomonas aeruginosa (strain ATCC 15692 / PAO1 / 1C / PRS 101 / LMG12228), UniProt P14756); test: Inhibition of Pseudomonas aeruginosa pseudolysin using Abz-Ala-Gly-Leu-Ala-p-nitrobenzylamide as substrate after 15 mins
[2] = Inhibition of Bacillus thermoproteolyticus thermolysin using Mca-Arg-Pro-Pro-Gly-Phe-Ser-Ala-Phe-Lys-(Dnp)-OH as substrate after 1 hr by fluorescence assay in presence of Brij-35
Elastase [3] = molecular target: T1, Elastase; test: Inhibition of Pseudomonas aeruginosa pseudolysin using Mca-Arg-Pro-Pro-Gly-Phe-Ser-Ala-Phe-Lys-(Dnp)-OH as substrate after 1 hr by fluorescence assay in presence of Brij-35

T1 sequence (P14756 whole entry): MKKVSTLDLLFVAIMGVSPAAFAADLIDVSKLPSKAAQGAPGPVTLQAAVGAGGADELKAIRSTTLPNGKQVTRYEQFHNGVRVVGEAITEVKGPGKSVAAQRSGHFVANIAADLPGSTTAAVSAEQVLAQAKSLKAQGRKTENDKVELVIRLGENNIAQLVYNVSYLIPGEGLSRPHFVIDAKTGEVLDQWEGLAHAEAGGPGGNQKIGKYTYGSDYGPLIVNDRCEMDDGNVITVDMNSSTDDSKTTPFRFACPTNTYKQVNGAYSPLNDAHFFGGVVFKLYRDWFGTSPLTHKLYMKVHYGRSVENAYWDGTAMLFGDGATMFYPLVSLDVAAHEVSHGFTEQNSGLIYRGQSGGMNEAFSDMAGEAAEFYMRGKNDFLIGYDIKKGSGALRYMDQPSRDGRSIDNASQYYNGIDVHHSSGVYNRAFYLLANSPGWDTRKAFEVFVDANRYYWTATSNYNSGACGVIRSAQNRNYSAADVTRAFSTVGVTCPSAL

| Compound | IC50 (Elastase [1]) [µM] | IC50 [2] [µM] | IC50 (Elastase [3]) [µM] |
| --- | --- | --- | --- |
| COc1ccc(S(=O)(=O)N(CC(=O)O)CC(=O)NCCc2ccc(S(N)(=O)=O)cc2)cc1 | > 282 | 637 |  |
| COc1ccc(S(=O)(=O)N(CC(=O)NO)CC(=O)NCCc2ccc(S(N)(=O)=O)cc2)cc1 | 15 | 164 | 33 |
| NS(=O)(=O)c1ccc(CCNC(=O)CN(CC(=O)NO)S(=O)(=O)c2ccc(Oc3ccccc3)cc2)cc1 | 16 | 160 | 276 |
| NS(=O)(=O)c1ccc(CCNC(=O)CN(CC(=O)NO)S(=O)(=O)c2ccc(-c3ccccc3)cc2)cc1 | 31 | 67 |  |
| NS(=O)(=O)c1ccc(CCNC(=O)CN(CC(=O)NO)Cc2ccccc2)cc1 | 0.4 | 12 |  |
| O=C(O)CN(CC(=O)NO)Cc1ccc([N+](=O)[O-])cc1 | 20 | 755 |  |
| O=C(O)CN(CC(=O)NO)Cc1ccc(-c2ccccc2)cc1 | > 121 | > 1000 |  |
| O=C(O)CN(CC(=O)NO)Cc1ccc(Oc2ccccc2)cc1 | > 200 | 524 | 430 |
| O=C(O)CN(CC(=O)NO)S(=O)(=O)c1ccc(-c2ccccc2)cc1 | > 150 | 440 | 241 |
| O=C(O)CN(CC(=O)NO)NCCCN1CCN(c2ccccc2)CC1 | > 330 | > 1000 |  |
| O=C(CN(CC(=O)NCCCN1CCN(c2ccccc2)CC1)Cc1ccccc1)NO | 6.7 | 8 | 2.8 |
| O=C(O)CN(CC(=O)NO)S(=O)(=O)c1ccc(Oc2ccccc2)cc1 | > 186 | 114 | 46 |
| COc1ccc(S(=O)(=O)N(CC(=O)O)CC(=O)NO)cc1 | 169 | 270 | 153 |
| CC(C)[C@H](C(=O)NO)N(CC(=O)O)S(=O)(=O)c1ccc(Oc2ccccc2)cc1 | 82 | > 1000 | 336 |
